Data from patent publication EP3046573B1, “AMYLIN ANALOGUES” (Zealand Pharma A/S, priority 2013, dated 2015).
Numbered stars: 1 amine (or outer) side, 2 acyl side, 3 side chain; on linkers, the order of the positions; unused ones are H or OH. Bridge positions count the residues as written; N and C are the ends. Square brackets hold non-standard residues; d marks the D form. Peptide text beside a SMILES is read from it. * marks the point of attachment. C20 diacid = O=C(O)CCCCCCCCCCCCCCCCCCC(=O)*; γGlu = O=C(O)[C@H](CCC(=O)[*:2])N[*:1]; NMeI = CC[C@H](C)[C@H](NC)C(=O)O; Sar = CNCC(=O)O

Tests used:
[1] = target: T1, human calcitonin receptor (hCTR2) (Homo sapiens, UniProt P30988); experiment: hCTR2 assay: induction of cAMP (AlphaScreen cAMP Assay kit) in COS7 cells expressing hCTR2; format: cell-based; conditions: cAMP induction in COS7 cells expressing hCTR2; average of a minimum of 3 determinations; read-out: hCTR2 EC50
T1 construct: expressed in transfected cells
T1 sequence (P30988 25-474): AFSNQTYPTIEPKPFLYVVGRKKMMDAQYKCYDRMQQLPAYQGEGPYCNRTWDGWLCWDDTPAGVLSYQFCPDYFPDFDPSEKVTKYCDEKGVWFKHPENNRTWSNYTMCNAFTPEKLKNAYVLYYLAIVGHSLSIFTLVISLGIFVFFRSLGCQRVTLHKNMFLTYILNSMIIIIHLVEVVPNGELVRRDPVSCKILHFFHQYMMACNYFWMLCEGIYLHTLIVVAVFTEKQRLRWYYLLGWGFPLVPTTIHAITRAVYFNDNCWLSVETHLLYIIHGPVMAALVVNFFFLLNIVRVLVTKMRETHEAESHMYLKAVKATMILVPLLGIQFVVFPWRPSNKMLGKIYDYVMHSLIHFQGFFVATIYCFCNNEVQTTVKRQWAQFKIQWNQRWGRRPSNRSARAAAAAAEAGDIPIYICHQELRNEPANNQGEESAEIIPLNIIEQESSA
In short: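 Stable RAMP-naive COS7 clone expressing hCTR2 was stimulated with increasing peptide concentrations in Tyrode buffer (pH 7.4) with 100 µM IBMX and 0.1% casein for 15 min at 37° C. Cells were lysed and cAMP measured by AlphaScreen. EC50 and efficacy relative to pramlintide came from 4PL curve fits.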

[2] = target: T2, human amylin receptor 3 (hAMYR3) consisting of hCTR2 co-expressed with human Receptor Activity Modifying Protein 3 (hRAMP3) (Homo sapiens, UniProt O60896+P30988); experiment: hAMYR3 assay: induction of cAMP (AlphaScreen cAMP Assay kit) in COS7 cells expressing hAMYR3; format: cell-based; conditions: cAMP induction in COS7 cells expressing hAMYR3; average of a minimum of 3 determinations; read-out: hAMY R3 EC50
T2 construct: expressed in transfected cells
T2 sequence (P30988 25-474): T1 sequence (P30988 25-474)
T2 sequence (O60896 24-148 partner): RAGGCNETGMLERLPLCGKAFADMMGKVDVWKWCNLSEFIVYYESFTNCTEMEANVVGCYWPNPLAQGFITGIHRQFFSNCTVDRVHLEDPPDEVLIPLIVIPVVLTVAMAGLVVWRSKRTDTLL
In short: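 Stable COS7 clone co-expressing hCTR2 and hRAMP3, stimulated 15 min at 37° C with increasing peptide in Tyrode buffer pH 7.4 with 100 µM IBMX and 0.1% casein. cAMP measured by AlphaScreen after lysis; EC50 and % efficacy versus pramlintide from 4PL fit.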

[3] = Solubility assessment (turbidity absorbance at 325 nm); format: physicochemical; conditions: stock 2 mg/ml diluted 1:1, ambient temperature (typically 25°C), n=1; for Solubility, Acetate buffer pH 4: 100 mM acetate buffer pH 4.0; for Solubility, Acetate buffer pH 5: 100 mM acetate buffer pH 5.0; for Solubility, Histidine buffer pH 6: 100 mM histidine buffer pH 6.0; for Solubility, Histidine buffer pH 7: 100 mM histidine buffer pH 7.0; for Solubility, Phosphate buffer pH 6: 100 mM phosphate buffer pH 6.0; for Solubility, Phosphate buffer pH 7: 100 mM phosphate buffer pH 7.0; for Solubility, Phosphate buffer pH 7.5: 100 mM phosphate buffer pH7.5
In short: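 Peptide stock (2 mg/ml) in water acidified to pH 2.5 with HCl was diluted 1:1 into 100 mM acetate (pH 4.0, 5.0), histidine (pH 6.0, 7.0) or phosphate (pH 6.0, 7.0, 7.5) buffer. A280 and A325 were read at about 25°C, n=1. A325 ≤ 0.02 meant solubility ≥ 1 mg/ml.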

Structure (SMILES): CC[C@H](C)[C@@H](C(=O)N[C@@H](CC(C)C)C(=O)N[C@@H](CO)C(=O)N[C@@H](CO)C(=O)N[C@H](C(=O)N[C@@H](CCC(=O)O)C(=O)N[C@H](C(=O)NCC(=O)N[C@@H](CO)C(=O)N[C@@H](CCC(=O)O)C(=O)N[C@H](C(=O)N1CCC[C@H]1C(N)=O)[C@@H](C)O)C(C)C)[C@@H](C)O)N(C)C(=O)[C@H](C)NC(=O)CN(C)C(=O)[C@H](Cc1ccccc1)NC(=O)[C@H](CO)NC(=O)[C@H](CO)NC(=O)[C@H](CO)NC(=O)[C@H](CO)NC(=O)[C@H](CCCNC(=N)N)NC(=O)[C@H](Cc1c[nH]cn1)NC(=O)[C@H](CC(C)C)NC(=O)[C@H](Cc1ccccc1)NC(=O)[C@H](CCC(=O)O)NC(=O)[C@H](C)NC(=O)[C@H](CC(C)C)NC(=O)[C@H](CCCNC(=N)N)NC(=O)CNC(=O)[C@@H](NC(=O)[C@H](C)NC(=O)[C@@H]1CSSC[C@H](NC(=O)[C@H](CCCNC(=N)N)NC(=O)CC[C@H](NC(=O)CCCCCCCCCCCCCCCCCCC(=O)O)C(=O)O)C(=O)N[C@@H](CO)C(=O)N[C@@H]([C@@H](C)O)C(=O)N[C@@H](C)C(=O)N[C@@H]([C@@H](C)O)C(=O)N1)[C@@H](C)O [Compound 132, [19CD]-isoGlu-RC()STATC()ATGRLAEFLHRSSSSF-Gly(Me)-A-Ile(Me)-LSSTEVGSETP-NH2] ({C20 diacid-γGlu}-RCSTATCATGRLAEFLHRSSSSF[Sar]A[NMeI]LSSTEVGSETP-NH2; disulfide 2-7)
- EC50 [1]: 0.22 nM
- EC50 [2]: 0.35 nM
- Solubility, Acetate buffer pH 4 [3]: SS (SS indicates solubility ≥ 1mg/ml)
- Solubility, Acetate buffer pH 5 [3]: SS (SS indicates solubility ≥ 1mg/ml)
- Solubility, Histidine buffer pH 6 [3]: SS (SS indicates solubility ≥ 1mg/ml)
- Solubility, Histidine buffer pH 7 [3]: SS (SS indicates solubility ≥ 1mg/ml)
- Solubility, Phosphate buffer pH 6 [3]: SS (SS indicates solubility ≥ 1mg/ml)
- Solubility, Phosphate buffer pH 7 [3]: SS (SS indicates solubility ≥ 1mg/ml)
- Solubility, Phosphate buffer pH 7.5 [3]: SS (SS indicates solubility ≥ 1mg/ml)

Structure (SMILES): CC[C@H](C)[C@@H](C(=O)N[C@@H](CC(C)C)C(=O)N[C@@H](CO)C(=O)N[C@@H](CO)C(=O)N[C@H](C(=O)N[C@@H](CCC(=O)O)C(=O)N[C@H](C(=O)NCC(=O)N[C@@H](CO)C(=O)N[C@@H](CCC(=O)O)C(=O)N[C@H](C(=O)N1CCC[C@H]1C(N)=O)[C@@H](C)O)C(C)C)[C@@H](C)O)N(C)C(=O)[C@H](C)NC(=O)CN(C)C(=O)[C@H](Cc1ccccc1)NC(=O)[C@H](CO)NC(=O)[C@H](CO)NC(=O)[C@H](CO)NC(=O)[C@H](CO)NC(=O)[C@H](CCCNC(=N)N)NC(=O)[C@H](Cc1c[nH]cn1)NC(=O)[C@H](CC(C)C)NC(=O)[C@H](Cc1ccccc1)NC(=O)[C@H](CCC(=O)O)NC(=O)[C@H](C)NC(=O)[C@H](CC(C)C)NC(=O)[C@H](CCCNC(=N)N)NC(=O)[C@@H](NC(=O)[C@@H](NC(=O)[C@H](C)NC(=O)[C@@H]1CSSC[C@H](NC(=O)[C@H](CCCNC(=N)N)NC(=O)CC[C@H](NC(=O)CCCCCCCCCCCCCCCCCCC(=O)O)C(=O)O)C(=O)N[C@@H](CC(N)=O)C(=O)N[C@@H]([C@@H](C)O)C(=O)N[C@@H](C)C(=O)N[C@@H]([C@@H](C)O)C(=O)N1)[C@@H](C)O)[C@@H](C)O [Compound 123, [19CD]-isoGlu-RC()NTATC()ATTRLAEFLHRSSSSF-Gly(Me)-A-Ile(Me)-LSSTEVGSETP-NH2] ({C20 diacid-γGlu}-RCNTATCATTRLAEFLHRSSSSF[Sar]A[NMeI]LSSTEVGSETP-NH2; disulfide 2-7)
- EC50 [1]: 0.28 nM
- EC50 [2]: 0.29 nM
- Solubility, Acetate buffer pH 4 [3]: SS (SS indicates solubility ≥ 1mg/ml)
- Solubility, Acetate buffer pH 5 [3]: SS (SS indicates solubility ≥ 1mg/ml)
- Solubility, Histidine buffer pH 6 [3]: SS (SS indicates solubility ≥ 1mg/ml)
- Solubility, Histidine buffer pH 7 [3]: SS (SS indicates solubility ≥ 1mg/ml)
- Solubility, Phosphate buffer pH 6 [3]: SS (SS indicates solubility ≥ 1mg/ml)
- Solubility, Phosphate buffer pH 7 [3]: SS (SS indicates solubility ≥ 1mg/ml)
- Solubility, Phosphate buffer pH 7.5 [3]: SS (SS indicates solubility ≥ 1mg/ml)

Structure (SMILES): CC[C@H](C)[C@@H](C(=O)N[C@@H](CC(C)C)C(=O)N[C@@H](CO)C(=O)N[C@@H](CO)C(=O)N[C@H](C(=O)N[C@@H](CCC(=O)O)C(=O)N[C@H](C(=O)NCC(=O)N[C@@H](CO)C(=O)N[C@@H](CCC(=O)O)C(=O)N[C@H](C(=O)N1CCC[C@H]1C(N)=O)[C@@H](C)O)C(C)C)[C@@H](C)O)N(C)C(=O)[C@H](C)NC(=O)CN(C)C(=O)[C@H](Cc1ccccc1)NC(=O)[C@H](CO)NC(=O)[C@H](CO)NC(=O)[C@H](CO)NC(=O)[C@H](CO)NC(=O)[C@H](CCCNC(=N)N)NC(=O)[C@H](Cc1c[nH]cn1)NC(=O)[C@H](CC(C)C)NC(=O)[C@H](Cc1ccccc1)NC(=O)[C@H](CCC(=O)O)NC(=O)[C@H](C)NC(=O)[C@H](CC(C)C)NC(=O)[C@H](CCCNC(=N)N)NC(=O)[C@H](C)NC(=O)[C@@H](NC(=O)[C@H](C)NC(=O)[C@@H]1CSSC[C@H](NC(=O)[C@H](CCCNC(=N)N)NC(=O)CC[C@H](NC(=O)CCCCCCCCCCCCCCCCCCC(=O)O)C(=O)O)C(=O)N[C@@H](CO)C(=O)N[C@@H]([C@@H](C)O)C(=O)N[C@@H](C)C(=O)N[C@@H]([C@@H](C)O)C(=O)N1)[C@@H](C)O [Compound 144, [19CD]-isoGlu-RC()STATC()ATARLAEFLHRSSSSF-Gly(Me)-A-Ile(Me)-LSSTEVGSETP-NH2] ({C20 diacid-γGlu}-RCSTATCATARLAEFLHRSSSSF[Sar]A[NMeI]LSSTEVGSETP-NH2; disulfide 2-7)
- EC50 [1]: 0.11 nM
- EC50 [2]: 0.24 nM
- Solubility, Acetate buffer pH 4 [3]: SS (SS indicates solubility ≥ 1mg/ml)
- Solubility, Acetate buffer pH 5 [3]: SS (SS indicates solubility ≥ 1mg/ml)
- Solubility, Histidine buffer pH 6 [3]: SS (SS indicates solubility ≥ 1mg/ml)
- Solubility, Histidine buffer pH 7 [3]: SS (SS indicates solubility ≥ 1mg/ml)
- Solubility, Phosphate buffer pH 6 [3]: SS (SS indicates solubility ≥ 1mg/ml)
- Solubility, Phosphate buffer pH 7 [3]: SS (SS indicates solubility ≥ 1mg/ml)
- Solubility, Phosphate buffer pH 7.5 [3]: SS (SS indicates solubility ≥ 1mg/ml)
